According to US20240325334A1, “COMPOSITION FOR GENERATING NITROGEN MONOXIDE” (SEOUL NATIONAL UNIVERSITY R&DB FOUNDATION, priority 2021, published 2024):

Assay: NO generation experiment: compound reacted with H2O2 in the presence of a catalyst, Griess assay
Conditions: compound 1 mg/ml, PBS pH 5.5, 1 mM H2O2, 37° C., 4 hours
Description: Generation of nitric oxide was investigated by reacting the above-described compounds having a structure of
with hydrogen peroxide (H2O2) in the presence of a catalyst. After suspending particles including 1 mg/ml of the compound below and the catalyst in a medium composed of 5 ml of PBS at pH 5.5 and hydrogen peroxide (H2O2) at 1 mM concentration, the suspension was subjected to incubation at 37° C. for 4 hours, followed by sampling the supernatant to analyze the NO generation through Griess assay.

Structure (SMILES): N=C(N)NCCC[C@H](NC(=O)OCc1ccccc1)C(=O)O [Nα-Benzyloxycarbonyl-L-arginine]
- Concentration of generated NO (catalyst Mn-porphyrin 2 mg/ml): 34 µM
- Concentration of generated NO (catalyst PCN-223-Fe 1 mg/ml): 216 µM
